The values below come from patent US5578570A, “Method of treating septic shock using thymosin β4” (The George Washington University Medical Center, priority 1994, dated 1996).

In the experiment the test system is Rats with Septic Shock. The experiment is described as follows: Survival of Sprague-Dawley rats in septic shock model (peritonitis). In kind it is in vivo. The note with it: Table XIV, septic shock + antibiotic (gentamicin sulfate, 1 mg/rat) alone, 10 rats at 0 hr. An excerpt: Using a septic shock model in rats (Sprague-Dawley, male, 200-225 g each), the effect of thymosin β4 alone and together with antibiotics was studied. Peritonitis was induced in rats in the following way. A 1-cm incision was made into the peritoneal which exposed the cecum. A tight ligature was placed around the cecum with 4-0 suture distal to the insertion of the small bowel, forming an area of devitalized tissue while maintaining bowel continuity. A puncture wound was made with 16-gauge needle into the anti-mesenteric surface of the cecum and a small amount of fecal contents was expressed through the wound. The cecum was replaced into the peritoneal cavity, and the anterior peritoneal wall and skin were closed with surgical staples. Each animal was given a bolus of normal saline (15 ml/kg) for hydration and allowed to recover overnight.

With “gentamicin sulfate [antibiotic, reference compound]”, the “Survival of rats (number alive)” value is, setting by setting: (24 hr) 1; (48 hr) 1; (72 hr) 0.
